One may read the IC50 as the point on the concentration scale where inhibition reaches its midpoint.

The results in this text go back to US20130109682A1, “CYCLIC ETHER COMPOUNDS USEFUL AS KINASE INHIBITORS” (NOVARTIS AG, priority 2010, published 2013).

Holding throughout (type): biochemical
In test [1] the target is PKCα (Homo sapiens, UniProt P17252). In words: PKCα kinase Caliper assay. The protocol: PKCα and cABLT315 Kinase Caliper Assays
Assays were performed in 384 well microtiter plates. Each assay plate contained 8-point serial dilutions for test compounds, as well as two 16-point serial dilutions of staurosporine as reference compound, plus 16 high- and 16 low controls. Liquid handling and incubation steps were done on a Thermo CatX workstation equipped with a Innovadyne Nanodrop Express. Between pipetting steps, tips were cleaned in wash cycles using wash buffer. Plates with terminated kinase reactions were transferred to the Caliper LC3000 workstations for reading. Phosphorylated and unphosphorylated peptides were separated using the Caliper microfluidic mobilitishift technology and Kinase activities were calculated from the amounts of formed phospho-peptide.
1. 0.05 μA Compound (start with 1.8 mM in 90% DMSO/10% H2O)
2. +4.5 μl 2× peptide/ATP solution
3. +4.5 μl 2× enzyme solution
4. Incubate for 60 min at 30° C.
4. +16 μl stop/run buffer
Independent of the kinase, all reactions were done performed in 50 mM HEPES, pH 7.5, 1 mM DTT, 0.02% Tween20, 0.02% BSA, and 0.6% DMSO.

For test [2], the target named is GSK3β (Homo sapiens, UniProt P49841). As to the kind of experiment: GSK3β ATP depletion assay. The note with it: read-out: GSK3b IC50. Put shortly: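 Kinase activity is read as ATP consumption: luciferase luminescence reports the ATP remaining once roughly half of the 2 μM ATP is used. Reaction mix: 5 nM GSK3β, 10 μM b-CREB peptide, 50 mM Tris pH 7.5, 15 mM MgCl2, 1 mM DTT, 0.1% BSA, 2.5% DMSO. Enzyme and peptide are preincubated 15 min before ATP is added.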
GSK3β, sequence (P49841 whole entry, species assumed): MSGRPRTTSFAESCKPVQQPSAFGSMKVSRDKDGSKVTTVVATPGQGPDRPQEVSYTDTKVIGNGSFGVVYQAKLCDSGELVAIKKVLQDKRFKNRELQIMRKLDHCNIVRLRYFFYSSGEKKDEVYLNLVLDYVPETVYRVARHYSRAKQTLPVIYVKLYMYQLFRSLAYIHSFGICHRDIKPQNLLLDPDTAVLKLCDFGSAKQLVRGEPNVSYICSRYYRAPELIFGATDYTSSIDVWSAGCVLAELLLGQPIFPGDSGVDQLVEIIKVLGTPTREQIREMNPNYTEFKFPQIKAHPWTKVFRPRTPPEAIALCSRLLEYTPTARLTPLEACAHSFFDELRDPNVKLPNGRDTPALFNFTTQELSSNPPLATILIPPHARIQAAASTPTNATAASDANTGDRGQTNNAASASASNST

The target in test [3] is PDGFRaV561D kinase (Homo sapiens, UniProt P16234, V561D). As to the kind of experiment: PDGFRaV561D kinase inhibition assay (LanthaScreen TR-FRET). The note with it: read-out: PDGFRa IC50. The method, then:
PDGFRaV561D Kinase Inhibition Assay
LanthaScreen™ is the detection of Time-Resolved Fluorescence Resonance Energy Transfer (TR-FRET) using lanthanide chelates to measure interactions between various binding partners. The application of TR-FRET to assay kinase activity was first described by Mathis (1995). A TR-FRET assay was used to measure PDGFRaV561D kinase inhibitory activity. The assay panel was run on a Biomek FX liquid handling workstations. To the assay plates containing […] compound or control solutions, 4.5 μL of buffer A (50 mM TRIS-HCl pH 7.4, 2 mM DTT, 0.02% Tween 20, 0.02 mM Na3VO4, H2O nanpure) including a generic concentration of ATP (2 μM f.c.) was added per well, followed by […] of buffer B (4 uM ATP in Buffer A) including a generic concentration of polyEAY (50 nM f.c.), PDGFRaV561D kinase, and divalent cations. Final concentration of kinase and cations were: [PDGFRaV561D kinase]=4.4 nM, [Mn]=10 mM. After 1 hour of incubation the kinase reactions were stopped by the addition of 4.5 μL of stop solution D (50 mM EDTA, 20 mM TRIS-HCl pH 7.4, 0.04% NP-40) immediately followed by 4.5 μL of buffer A (50 mM TRIS-HCl pH 7.4, 2 mM DTT, 0.02% Tween 20, 0.02 mM Na3VO4, H2O nanpure) including the Tb-labeled P-20 antibody to give a total detection volume of […]. After an incubation time of 45 min in the dark, the plates were transferred into the Pherastar fluorescence reader for counting. The effect of compound on the enzymatic activity was obtained from the linear progress curves and determined from one reading (end point measurement).
Background: Time-resolved FRET reads energy transfer from a long-lived donor to a nearby acceptor.

Where [4] appears, read: PKCα Caliper assay, read-out: PKC IC50.

Where two headings read alike, the source gives them in different places.

PDGFRaV561D kinase, sequence (P16234 24-1089 V561D): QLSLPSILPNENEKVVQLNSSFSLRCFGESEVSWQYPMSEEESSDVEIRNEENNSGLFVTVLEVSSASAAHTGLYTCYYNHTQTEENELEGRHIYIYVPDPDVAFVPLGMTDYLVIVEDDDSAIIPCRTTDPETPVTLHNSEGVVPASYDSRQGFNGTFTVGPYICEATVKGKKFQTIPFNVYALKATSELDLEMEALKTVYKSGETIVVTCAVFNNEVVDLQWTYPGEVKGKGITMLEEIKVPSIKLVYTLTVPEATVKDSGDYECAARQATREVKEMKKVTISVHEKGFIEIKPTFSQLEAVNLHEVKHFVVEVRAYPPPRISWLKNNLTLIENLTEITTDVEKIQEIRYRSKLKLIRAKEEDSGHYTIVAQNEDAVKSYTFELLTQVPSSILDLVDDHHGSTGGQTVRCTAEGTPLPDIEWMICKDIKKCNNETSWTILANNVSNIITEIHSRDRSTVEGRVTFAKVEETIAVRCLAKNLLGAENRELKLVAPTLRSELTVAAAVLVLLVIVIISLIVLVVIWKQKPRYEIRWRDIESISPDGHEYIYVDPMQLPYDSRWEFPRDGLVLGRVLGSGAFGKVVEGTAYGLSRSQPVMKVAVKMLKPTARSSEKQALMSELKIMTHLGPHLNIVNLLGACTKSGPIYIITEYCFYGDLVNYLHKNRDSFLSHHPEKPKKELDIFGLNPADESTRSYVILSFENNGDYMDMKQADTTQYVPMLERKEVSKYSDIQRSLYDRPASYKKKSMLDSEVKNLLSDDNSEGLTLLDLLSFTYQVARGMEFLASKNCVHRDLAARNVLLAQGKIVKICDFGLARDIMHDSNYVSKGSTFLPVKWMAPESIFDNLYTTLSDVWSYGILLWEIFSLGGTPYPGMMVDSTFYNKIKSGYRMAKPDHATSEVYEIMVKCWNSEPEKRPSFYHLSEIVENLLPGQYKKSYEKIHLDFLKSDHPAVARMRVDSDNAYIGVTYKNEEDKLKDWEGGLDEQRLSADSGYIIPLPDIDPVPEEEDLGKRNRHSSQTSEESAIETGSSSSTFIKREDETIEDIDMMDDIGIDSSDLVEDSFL

In the case of `CC[C@]1(O)[C@H](C)O[C@H](c2ccncc2NC(=O)c2nc(-c3ccccc3)cnc2N)C[C@@H]1N` [Example 189, 3-amino-N-(4-((2S,4S,5R,6S)-4-amino-5-ethyl-5-hydroxy-6-methyltetrahydro-2H-pyran-2-yl)pyridin-3-yl)-6-phenylpyrazine-2-carboxamide], the IC50 came out at 710 nM in test [1] (setting [4]), 71 nM in test [2] (ATP depletion assay) and 1700 nM in test [3].

On to `Nc1ncc(-c2ccccc2)nc1C(=O)Nc1cnccc1[C@H]1C[C@@H](O)[C@@]2(O)CCC[C@H]2O1` [Example 195, 3-amino-N-(4-((2R,4R,4aS,7aR)-4,4a-dihydroxyoctahydrocyclopenta[b]pyran-2-yl)pyridin-3-yl)-6-phenylpyrazine-2-carboxamide], for which the values for the IC50 in test [1] (read-out: PKC IC50), in test [2] and in test [3] were 230 nM, 1 nM and 33 nM, respectively.

Take `O=C1CC[C@H]2O[C@@H](c3ccncc3NC(=O)c3ccc(F)c(-c4c(F)cccc4F)n3)C[C@@H](O)[C@@H]2N1` [Example 196, 6-(2,6-difluorophenyl)-5-fluoro-N-(4-((2R,4R,4aS,8aR)-4-hydroxy-6-oxooctahydro-2H-pyrano[3,2-b]pyridin-2-yl)pyridin-3-yl)picolinamide]: the figures for the half-maximal inhibitory concentration (IC50) in test [1] (read-out: PKC IC50), in test [2] and in test [3] were greater than 10000 nM, 645 nM and greater than 10000 nM, respectively.

Regarding `Nc1ncc(-c2ccccc2)nc1C(=O)Nc1cnccc1[C@H]1C[C@@H](N)[C@@]2(O)CCCC[C@H]2O1` [Example 197, 3-amino-N-(4-((2R,4R,4aS,8aR)-4-amino-4a-hydroxyoctahydro-2H-chromen-2-yl)pyridin-3-yl)-6-phenylpyrazine-2-carboxamide], the results for the IC50 in test [1] (setting [4]), in test [2] (ATP depletion assay) and in test [3] were 41 nM, 8 nM and 23 nM, respectively.

In the case of `Nc1ncc(-c2ccccc2)nc1C(=O)Nc1cnccc1[C@H]1C[C@@H](N)[C@H]2CCC[C@H]2O1` [Example 199, 3-amino-N-(4-((2R,4R,4aR,7aR)-4-aminooctahydrocyclopenta[b]pyran-2-yl)pyridin-3-yl)-6-phenylpyrazine-2-carboxamide], the IC50 in test [1] (setting [4]) was 31 nM; in test [2] (ATP depletion assay), 7.6 nM; in test [3], 14 nM.

In the case of `N[C@@H]1C[C@H](c2ccncc2NC(=O)c2ccc(F)c(-c3c(F)cccc3F)n2)O[C@@H]2CCC[C@]12O` [Example 210, N-(4-((2R,4R,4aS,7aR)-4-amino-4a-hydroxyoctahydrocyclopenta[b]pyran-2-yl)pyridin-3-yl)-6-(2,6-difluorophenyl)-5-fluoropicolinamide], the half-inhibitory concentration (IC50) in test [1] (read-out: PKC IC50) was greater than 10000 nM; in test [2], 290 nM; in test [3] it was 400 nM.

Regarding `Nc1cnc(-c2c(F)cccc2F)nc1C(=O)Nc1cnccc1[C@H]1C[C@@H](N)[C@@]2(O)CCC[C@H]2O1` [Example 213, 5-amino-N-(4-((2R,4R,4aS,7aR)-4-amino-4a-hydroxyoctahydrocyclopenta[b]pyran-2-yl)pyridin-3-yl)-2-(2,6-difluorophenyl)pyrimidine-4-carboxamide], the IC50 in test [1] (read-out: PKC IC50) is greater than 10000 nM; in test [2], 558 nM; in test [3], 4000 nM.

Regarding `C[C@H]1O[C@@H](c2ccncc2NC(=O)c2ccc(F)c(-c3c(F)cccc3F)n2)C[C@@H](N)[C@]1(C)O` [Example 219, N-(4-((2R,4R,5S,6R)-4-amino-5-hydroxy-5,6-dimethyltetrahydro-2H-pyran-2-yl)pyridin-3-yl)-6-(2,6-difluorophenyl)-5-fluoropicolinamide], the figures for the IC50 in test [1] (setting [4]), in test [2] (ATP depletion assay) and in test [3] were greater than 10000 nM, 979 nM and 630 nM, respectively.

In the case of `N[C@@H]1C[C@H](c2ccncc2NC(=O)c2ccc(F)c(-c3c(F)cccc3F)n2)O[C@@H]2CCC[C@H]12` [Example 224, N-(4-((2R,4R,4aR,7aR)-4-aminooctahydrocyclopenta[b]pyran-2-yl)pyridin-3-yl)-6-(2,6-difluorophenyl)-5-fluoropicolinamide], the IC50 in test [1] (setting [4]) is greater than 10000 nM; in test [2] (ATP depletion assay), 363 nM; in test [3], 390 nM.

With `CC(C)(C)[C@@H]1O[C@H](c2ccncc2NC(=O)c2nc(-c3ccccc3)cnc2N)C[C@@H](N)[C@H]1O` [Example 227, 3-amino-N-(4-((2S,4R,5R,6S)-4-amino-6-tert-butyl-5-hydroxytetrahydro-2H-pyran-2-yl)pyridin-3-yl)-6-phenylpyrazine-2-carboxamide], the IC50 was 55 nM in test [1] (setting [4]), 6.4 nM in test [2] (ATP depletion assay) and 1300 nM in test [3].

As for `C[C@H]1O[C@@H](c2ccncc2NC(=O)c2nc(-c3ccccc3)cnc2N)C[C@@H](N)[C@]1(C)O` [Example 228, 3-amino-N-(4-((2R,4R,5S,6R)-4-amino-5-hydroxy-5,6-dimethyltetrahydro-2H-pyran-2-yl)pyridin-3-yl)-6-phenylpyrazine-2-carboxamide], the half-maximal inhibitory concentration (IC50) in test [1] (setting [4]) was 76 nM; in test [2] (ATP depletion assay) it was 13 nM; in test [3] it was 37 nM.

Consider `C[C@@H]1O[C@H](c2ccncc2NC(=O)c2nc(-c3ccccc3)cnc2N)C[C@H](N)[C@@]1(C)O` [Example 229, 3-amino-N-(4-((2S,4S,5R,6S)-4-amino-5-hydroxy-5,6-dimethyltetrahydro-2H-pyran-2-yl)pyridin-3-yl)-6-phenylpyrazine-2-carboxamide], for which the results for the 50% inhibitory concentration (IC50) in test [1] (setting [4]), in test [2] (ATP depletion assay) and in test [3] were 370 nM, 39 nM and 1000 nM, respectively.

Take `N[C@H]1C[C@@H](c2ccncc2NC(=O)c2csc(-c3c(F)cccc3F)n2)O[C@H]2CCC[C@H]21` [Example 230, N-(4-((2S,4S,4aS,7aS)-4-aminooctahydrocyclopenta[b]pyran-2-yl)pyridin-3-yl)-2-(2,6-difluorophenyl)thiazole-4-carboxamide]: the figures for the IC50 in test [1] (setting [4]), in test [2] (ATP depletion assay) and in test [3] were 1100 nM, 4580 nM and 1500 nM, respectively.

`Nc1ncc(-c2ccccc2)nc1C(=O)Nc1cnccc1[C@@H]1C[C@H](N)[C@@H]2CCC[C@@H]2O1` [Example 233, 3-amino-N-(4-((2S,4S,4aS,7aS)-4-aminooctahydrocyclopenta[b]pyran-2-yl)pyridin-3-yl)-6-phenylpyrazine-2-carboxamide]: the IC50 in test [1] (setting [4]) was determined as 550 nM; in test [2] (ATP depletion assay), 330 nM; in test [3], 940 nM.

Turning to `Nc1cc(F)c(-c2c(F)cccc2F)nc1C(=O)Nc1cnccc1[C@H]1C[C@@H](N)[C@@]2(O)CCCC[C@H]2O1` [Example 238, 3-amino-N-(4-((2R,4R,4aS,8aR)-4-amino-4a-hydroxyoctahydro-2H-chromen-2-yl)pyridin-3-yl)-6-(2,6-difluorophenyl)-5-fluoropicolinamide], the IC50 was greater than 10000 nM in test [1], 393 nM in test [2] (ATP depletion assay) and 7500 nM in test [3].

With `CC(C)[C@@H]1O[C@H](c2ccncc2NC(=O)c2nc(-c3ccccc3)cnc2N)C[C@H](N)[C@H]1O` [Example 240, 3-amino-N-(4-((2S,4S,5R,6S)-4-amino-5-hydroxy-6-isopropyltetrahydro-2H-pyran-2-yl)pyridin-3-yl)-6-phenylpyrazine-2-carboxamide], the 50% inhibitory concentration (IC50) was found to be 290 nM in test [1] (setting [4]), 270 nM in test [2] (ATP depletion assay) and 7300 nM in test [3].

For the compound `COc1cc(F)c(-c2nc(C(=O)Nc3cnccc3[C@H]3C[C@@H](N)[C@](C)(O)[C@@H](C)O3)ccc2F)c(F)c1` [Example 242, N-(4-((2R,4R,5S,6R)-4-amino-5-hydroxy-5,6-dimethyltetrahydro-2H-pyran-2-yl)pyridin-3-yl)-6-(2,6-difluoro-4-methoxyphenyl)-5-fluoropicolinamide], the figures for the IC50 in test [1] (setting [4]), in test [2] (ATP depletion assay) and in test [3] were greater than 10000 nM, 471 nM and 400 nM, respectively.
